US20160128953A1, “TRANS-CLOMIPHENE AND ITS ANALOGUES AS AGENTS THAT INCREASE BONE MINERAL DENSITY” (REPROS THERAPEUTICS INC., priority 2013, published 2016)
Marks after values point to notes of the source that are not given here.

Tests used:
[1] = system: human males with secondary hypogonadism; experiment: Serum hormone (DHT, E2) and SHBG levels by immunoassay in treated men; type: in vivo; settings: for DHT / E2 / SHBG: serum
Description: (§1) The effect of the isolated trans-clomiphene isomer on the serum level of biomarkers of bone resorption was assessed in human males with secondary hypogonadism.
Adult male subjects with a morning total testosterone blood level of <300 ng/dl and a serum LH of <15 IU/ml were administered either trans-clomiphene (12 mg/day or 25 mg/day via oral capsule) or a topical testosterone gel (Testim®, 50 mg applied daily) over a three month period. Quantitative determination of baseline serum (circulating) estrogen (E2), dihydrotestosterone (DHT), sex hormone binding globulin (SHBG), P1NP-1 and CTX measurements were made in the subjects by immunoassay. Treatment with either trans-clomiphene (12.5 mg or 25 mg) or Testim® was then initiated. […]

[2] = system: human males with secondary hypogonadism; experiment: Serum P1NP-1 (biomarker of bone formation) by immunoassay; type: in vivo
Description: as §1
(§2) Adult male subjects with a morning total testosterone blood level of <300 ng/dl and a serum LH of <15 IU/ml were administered either trans-clomiphene ([…] or 25 mg/day via oral capsule) or a topical testosterone gel (Testim®, 50 mg applied daily) over a three month period. Quantitative determination of baseline serum (circulating) estrogen (E2), dihydrotestosterone (DHT), sex hormone binding globulin (SHBG), P1NP-1 and CTX measurements were made in the subjects by immunoassay. Treatment with either trans-clomiphene (12.5 mg or 25 mg) or Testim® was then initiated. Follow-up measurements were taken at 3 weeks post initial dose, 6 months post initial dose and one month after cessation of treatment. The results are presented below at Table 1:
(§3) The effects of trans-clomiphene and Testim® on the level of serum biomarkers of bone formation (P1NP) and bone resorption (CTX) are illustrated at FIGS. 1 and 2. […] The lower levels of P1NP-1 at both trans-clomiphene doses are well within the normal range (15-80 μg/L). A decrease in CTX levels was also observed at both trans-clomiphene dosages; however, the decrease was much stronger at the 25 mg dose. […]

[3] = system: human males with secondary hypogonadism; experiment: Serum CTX (biomarker of bone resorption) by immunoassay; type: in vivo
Description: as §1, §2, §3

hypogonadal males = experiment: Total hip bone mineral density (BMD) by DEXA scan; type: in vivo, human; settings: 6 months daily trans-clomiphene (12.5 mg, or up-titrated to 25 mg/day); 15 hypogonadal males; FIG. 3
Description: The effect of trans-clomiphene on total hip bone mineral density (BMD) was assessed by dual-energy x-ray absorptiometry (DEXA) scans in 15 hypogonadal males (morning testosterone less than 300 ng/dL) with body mass index (BMI) ranging between 25 and 42 and no evidence of bone disease (including ostepenia) prior to treatment. DEXA scans were performed prior to treatment with trans-clomiphene to determine baseline measurements and after 6 months of daily administration of trans-clomiphene. Four of the 15 subjects received 12.5 mg trans-clomiphene administered daily throughout the 6 month period. Eleven of the 15 subjects began at the 12.5 mg/day dose but were later up-titrated to 25 mg/day. Total hip BMD was also assessed in 25 placebo (control) subjects at the same time points. BMD measurements at the 6 month time point in both treated and control subjects were compared to baseline measurements.

[4] = 12.5 mg Androxal daily oral, 3 months
[5] = 12.5 mg Androxal daily oral, 6 weeks
[6] = 12.5 mg Androxal daily oral, Baseline (before TxT)
[7] = 12.5 mg Androxal daily oral, Post TxT (one month after cessation)
[8] = 25 mg Androxal daily oral, 3 months
[9] = 25 mg Androxal daily oral, 6 weeks
[10] = 25 mg Androxal daily oral, Baseline (before TxT)
[11] = 25 mg Androxal daily oral, Post TxT (one month after cessation)

## CCN(CC)CCOc1ccc(/C(=C(/Cl)c2ccccc2)c2ccccc2)cc1 [Androxal, trans-clomiphene]
[1]; after cessation of trans-clomiphene treatment
  serum estrogen levels after cessation of treatment compared with baseline: remained elevated
[1]; daily administration of trans-clomiphene for 6 weeks and 3 months
  change in serum estradiol 17β (E2): significant increase
[1]; [4]
  DHT: 20.4^ ng/DL
  E2: 56.7*¶ pg/mL
  SHBG: 29.3 nmol/L
[1]; [5]
  DHT: 22.7*^ ng/DL
  E2: 52.1*¶ pg/mL
  SHBG: 28.6 nmol/L
[1]; [6]
  DHT: 15 ng/dL
  E2: 20.8 pg/mL
  SHBG: 24.7 nmol/L
[1]; [7]
  DHT: 13.7 ng/dL
  E2: 39.1* pg/mL
  SHBG: 24.9 nmol/L
[1]; [8]
  DHT: 23.2*^ ng/DL
  E2: 46.3*¶ pg/mL
  SHBG: 29.5 nmol/L
[1]; [9]
  DHT: 22.2*^ ng/DL
  E2: 48.3*¶ pg/mL
  SHBG: 32 nmol/L
[1]; [10]
  DHT: 15.3 ng/dL
  E2: 24.7 pg/mL
  SHBG: 26.4 nmol/L
[1]; [11]
  DHT: 15.8 ng/dL
  E2: 40.2* pg/mL
  SHBG: 28.7 nmol/L
[2]; 25 mg trans-clomiphene daily, dose dependency
  change in serum P1NP-1 levels, 25 mg dose compared with 12.5 mg dose: more robust decrease
[2]; either dose of trans-clomiphene (12.5 mg or 25 mg daily), FIG. 1
  change in serum P1NP-1 levels: decrease
[3]; 25 mg trans-clomiphene daily
  decrease in serum CTX levels, 25 mg dose compared with 12.5 mg dose: much stronger
[3]; both trans-clomiphene dosages (12.5 mg and 25 mg daily), FIG. 2
  change in serum CTX levels: decrease
Hypogonadal males
  increase in total hip BMD versus baseline: about 1.23%
